Experimental data from ChEMBL document CHEMBL5303573, “Mapping human microbiome drug metabolism by gut bacteria and their genes” (Nature, 2019).

Key:
[1] = The drug is tested on Bifidobacterium breve strain: DSM20213 for biotransformation. The drug concentrations were measured before and after a 12-h incubation by liquid-chromatography-coupled mass spectrometry (LC–MS); conditions: 2 µM
[2] = The drug is tested on Eggerthella lenta strain: ATCC25559 for biotransformation. The drug concentrations were measured before and after a 12-h incubation by liquid-chromatography-coupled mass spectrometry (LC–MS); conditions: 2 µM
[3] = The drug is tested on Bacteroides cellulosilyticus strain: DSM14838 for biotransformation. The drug concentrations were measured before and after a 12-h incubation by liquid-chromatography-coupled mass spectrometry (LC–MS); conditions: 2 µM
[4] = The drug is tested on Bacteroides fragilis strain: HMW615 for biotransformation. The drug concentrations were measured before and after a 12-h incubation by liquid-chromatography-coupled mass spectrometry (LC–MS); conditions: 2 µM
[5] = The drug is tested on Bacteroides fragilis strain: ATCC43859 for biotransformation. The drug concentrations were measured before and after a 12-h incubation by liquid-chromatography-coupled mass spectrometry (LC–MS); conditions: 2 µM
[6] = The drug is tested on Bacteroides sp. WH2 strain: WH2 for biotransformation. The drug concentrations were measured before and after a 12-h incubation by liquid-chromatography-coupled mass spectrometry (LC–MS); conditions: bacteroides sp. wh2, 12 h, 2 µM
[7] = The drug is tested on Bacteroides xylanisolvens strain: DSM18836 for biotransformation. The drug concentrations were measured before and after a 12-h incubation by liquid-chromatography-coupled mass spectrometry (LC–MS); conditions: 2 µM
[8] = The drug is tested on Odoribacter splanchnicus strain: fecal isolate for biotransformation. The drug concentrations were measured before and after a 12-h incubation by liquid-chromatography-coupled mass spectrometry (LC–MS); conditions: 2 µM
[9] = The drug is tested on Anaerotruncus colihominis strain: DSM17241 for biotransformation. The drug concentrations were measured before and after a 12-h incubation by liquid-chromatography-coupled mass spectrometry (LC–MS); conditions: 2 µM
[10] = The drug is tested on Clostridium asparagiforme strain: DSM15981 for biotransformation. The drug concentrations were measured before and after a 12-h incubation by liquid-chromatography-coupled mass spectrometry (LC–MS); assay type: ADME; set-up: dose 2 uM, timepoint 0 vs 12 hours; conditions: enterocloster asparagiformis, 2 µM
[11] = The drug is tested on Clostridium scindens strain: ATCC35704 for biotransformation. The drug concentrations were measured before and after a 12-h incubation by liquid-chromatography-coupled mass spectrometry (LC–MS); conditions: 2 µM
[12] = The drug is tested on Eubacterium hallii strain: DSM3353 for biotransformation. The drug concentrations were measured before and after a 12-h incubation by liquid-chromatography-coupled mass spectrometry (LC–MS); conditions: anaerobutyricum hallii, 2 µM
[13] = The drug is tested on Eubacterium rectale strain: ATCC33656 for biotransformation. The drug concentrations were measured before and after a 12-h incubation by liquid-chromatography-coupled mass spectrometry (LC–MS); conditions: agathobacter rectalis, 2 µM
[14] = The drug is tested on Eubacterium ventriosum strain: ATCC27560 for biotransformation. The drug concentrations were measured before and after a 12-h incubation by liquid-chromatography-coupled mass spectrometry (LC–MS); assay type: ADME; set-up: dose 2 uM, timepoint 0 vs 12 hours; conditions: 2 µM
[15] = The drug is tested on Ruminococcus lactaris strain: ATCC29176 for biotransformation. The drug concentrations were measured before and after a 12-h incubation by liquid-chromatography-coupled mass spectrometry (LC–MS); conditions: 2 µM
[16] = bifidobacterium adolescentis, 12 h, 2 µM
Description: The drug is tested on Bifidobacterium adolescentis strain: ATCC 15703 for biotransformation. The drug concentrations were measured before and after a 12-h incubation by liquid-chromatography-coupled mass spectrometry (LC–MS)

[17] = bacteroides eggerthii, 12 h, 2 µM
Description: The drug is tested on Bacteroides eggerthii strain: DSM20697 for biotransformation. The drug concentrations were measured before and after a 12-h incubation by liquid-chromatography-coupled mass spectrometry (LC–MS)

[18] = bacteroides stercoris, 12 h, 2 µM
Description: The drug is tested on Bacteroides stercoris strain: ATCC43183 for biotransformation. The drug concentrations were measured before and after a 12-h incubation by liquid-chromatography-coupled mass spectrometry (LC–MS)

[19] = enterocloster bolteae, 12 h, 2 µM
Description: The drug is tested on Clostridium bolteae strain: ATCCBAA-613 for biotransformation. The drug concentrations were measured before and after a 12-h incubation by liquid-chromatography-coupled mass spectrometry (LC–MS)

[20] = limosilactobacillus reuteri cf48-3a, 12 h, 2 µM
Description: The drug is tested on Lactobacillus reuteri CF48-3A strain: BEI HM-102 for biotransformation. The drug concentrations were measured before and after a 12-h incubation by liquid-chromatography-coupled mass spectrometry (LC–MS)

Row | Compound | Bacterial Biotransformation [1] | Bacterial Biotransformation [2] | Bacterial Biotransformation [3] | Bacterial Biotransformation [4] | Bacterial Biotransformation [5] | Bacterial Biotransformation [6] | Bacterial Biotransformation [7] | Bacterial Biotransformation [8] | Bacterial Biotransformation [9] | Bacterial Biotransformation [10] | Bacterial Biotransformation [11] | Bacterial Biotransformation [12] | Bacterial Biotransformation [13] | Bacterial Biotransformation [14] | Bacterial Biotransformation [15] | Bacterial Biotransformation [16] | Bacterial Biotransformation [17] | Bacterial Biotransformation [18] | Bacterial Biotransformation [19] | Bacterial Biotransformation [20]
1 | C[C@@H]1CC[C@H]2[C@@H](C)C(=O)O[C@@H]3O[C@@]4(C)CC[C@@H]1[C@]32OO4 [ARTEMISININ] | Compound metabolized | Compound metabolized | Compound metabolized | Compound metabolized | Compound metabolized | Compound metabolized | Compound metabolized | Compound metabolized | Compound metabolized | Compound metabolized | Compound metabolized | Compound metabolized | Compound metabolized | Compound metabolized | Compound metabolized | Compound metabolized | Compound metabolized | Compound metabolized | Compound metabolized | Compound metabolized
2 | CCN(CC)C(=O)/C(C#N)=C/c1cc(O)c(O)c([N+](=O)[O-])c1 [ENTACAPONE] | Compound metabolized | Compound metabolized | Compound metabolized | Compound metabolized | Compound metabolized | Compound metabolized | Compound metabolized | Compound metabolized | Compound metabolized | Compound metabolized | Compound metabolized | Compound metabolized | Compound metabolized | Compound metabolized | Compound metabolized | Compound metabolized | Compound metabolized | Compound metabolized | Compound metabolized | Compound metabolized
3 | CNCCC(Oc1ccc(C(F)(F)F)cc1)c1ccccc1 (centres undefined) [FLUOXETINE] | Compound metabolized | Compound NOT metabolized | Compound NOT metabolized | Compound metabolized | Compound metabolized | Compound metabolized | Compound metabolized | Compound metabolized | Compound NOT metabolized | Compound metabolized | Compound NOT metabolized | Compound metabolized | Compound metabolized | Compound metabolized | Compound metabolized | Compound metabolized | Compound metabolized | Compound metabolized | Compound metabolized | Compound metabolized
4 | CCS(=O)(=O)CCn1c([N+](=O)[O-])cnc1C [TINIDAZOLE] | Compound metabolized | Compound metabolized | Compound metabolized | Compound metabolized | Compound metabolized | Compound metabolized | Compound metabolized | Compound metabolized | Compound metabolized | Compound metabolized | Compound metabolized | Compound metabolized | Compound metabolized | Compound metabolized | Compound metabolized | Compound metabolized | Compound metabolized | Compound metabolized | Compound metabolized | Compound NOT metabolized
5 | CC[C@@H](CO)NC(=O)[C@@H]1C=C2c3cccc4c3c(cn4C)C[C@H]2N(C)C1.O=C(O)/C=C\C(=O)O [METHYSERGIDE MALEATE] | Compound metabolized | Compound metabolized | Compound metabolized | Compound NOT metabolized | Compound NOT metabolized | Compound metabolized | Compound metabolized | Compound metabolized | Compound metabolized | Compound metabolized | Compound metabolized | Compound metabolized | Compound metabolized | Compound metabolized | Compound metabolized | Compound metabolized | Compound metabolized | Compound metabolized | Compound metabolized | Compound metabolized
6 | CC(=O)Oc1ccc(C(c2ccc(OC(C)=O)cc2)c2ccccn2)cc1 [BISACODYL] | Compound metabolized | Compound metabolized | Compound metabolized | Compound metabolized | Compound metabolized | Compound metabolized | Compound metabolized | Compound metabolized | Compound metabolized | Compound metabolized | Compound metabolized | Compound metabolized | Compound metabolized | Compound metabolized | Compound metabolized | Compound metabolized | Compound metabolized | Compound metabolized | Compound metabolized | Compound metabolized
7 | COc1ccc2[nH]c([S+]([O-])Cc3ncc(C)c(OC)c3C)nc2c1 (centres undefined) [OMEPRAZOLE] | Compound metabolized | Compound metabolized | Compound metabolized | Compound metabolized | Compound metabolized | Compound metabolized | Compound metabolized | Compound metabolized | Compound metabolized | Compound metabolized | Compound metabolized | Compound metabolized | Compound metabolized | Compound metabolized | Compound metabolized | Compound metabolized | Compound metabolized | Compound metabolized | Compound metabolized | Compound metabolized
8 | CNC(=C[N+](=O)[O-])NCCSCc1ccc(CN(C)C)o1 [RANITIDINE] | Compound metabolized | Compound metabolized | Compound metabolized | Compound NOT metabolized | Compound NOT metabolized | – | Compound metabolized | Compound metabolized | Compound metabolized | Compound metabolized | Compound metabolized | Compound metabolized | Compound metabolized | Compound metabolized | Compound metabolized | Compound metabolized | Compound NOT metabolized | Compound NOT metabolized | Compound NOT metabolized | Compound NOT metabolized
